How the values were obtained:
Neuraminidase [1] = biological target: T1, Neuraminidase (Influenza A virus, UniProt B4URF0); experiment: Inhibition of Influenza A virus A/WSN/1933(H1N1) neuraminidase
[2] = Antiviral activity against Influenza A virus (A/WSN/1933(H1N1)) infected in MDCK cells assessed as inhibition of virus-induced cytopathicity; type: functional, organism-based
Influenza A virus = experiment: Antiviral activity against Influenza A virus (A/Singapore/1/1957 (H2N2)) infected in MDCK cells assessed as inhibition of virus-induced plaque formation; type: functional, organism-based
Neuraminidase [3] = biological target: T1, Neuraminidase
Neuraminidase [4] = biological target: T1, Neuraminidase; experiment: Inhibition of Influenza A virus A/Vienna/83/58(H2N2) neuraminidase

T1 sequence (B4URF0 whole entry): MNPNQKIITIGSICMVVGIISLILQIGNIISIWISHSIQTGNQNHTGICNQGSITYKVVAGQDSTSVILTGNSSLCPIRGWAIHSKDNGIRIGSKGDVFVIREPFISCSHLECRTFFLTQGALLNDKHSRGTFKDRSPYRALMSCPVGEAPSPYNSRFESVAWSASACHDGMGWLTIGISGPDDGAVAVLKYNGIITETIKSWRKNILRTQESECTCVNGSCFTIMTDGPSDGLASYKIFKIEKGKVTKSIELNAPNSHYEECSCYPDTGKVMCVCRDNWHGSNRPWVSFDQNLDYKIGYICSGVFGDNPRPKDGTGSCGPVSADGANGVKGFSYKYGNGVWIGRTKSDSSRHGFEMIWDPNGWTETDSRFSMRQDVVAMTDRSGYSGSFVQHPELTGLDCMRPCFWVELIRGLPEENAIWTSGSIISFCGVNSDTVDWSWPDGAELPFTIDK

Structure (SMILES): CC(=O)N[C@H]1[C@H]([C@H](O)[C@H](O)CO)OC(C(=O)O)=C[C@@H]1NCCCCN
- IC50 (Neuraminidase [1]): > 200 µM

Structure (SMILES): CC(=O)N[C@H]1[C@H]([C@H](O)[C@H](O)CO)OC(C(=O)O)=C[C@@H]1NC(=N)NCCCCN
- IC50 (Neuraminidase [1]): > 200 µM

Structure (SMILES): CC(=O)N[C@H]1[C@H]([C@H](O)[C@H](O)CO)OC(C(=O)O)=C[C@@H]1NCCCN
- IC50 (Neuraminidase [1]): > 200 µM

Structure (SMILES): CC(=O)N[C@H]1[C@H]([C@H](O)[C@H](O)CO)OC(C(=O)O)=C[C@@H]1N(CCCN)C(=N)N
- IC50 (Neuraminidase [1]): > 200 µM

Structure (SMILES): CC(=O)N[C@H]1[C@H]([C@H](O)[C@H](O)CO)OC(C(=O)O)=C[C@@H]1NCCCC(=O)O
- IC50 (Neuraminidase [1]): 70 µM

Structure (SMILES): CC(=O)N[C@H]1[C@H]([C@H](O)[C@H](O)CO)OC(C(=O)O)=C[C@@H]1NC1=NCCN1
- IC50 (Neuraminidase [1]): > 200 µM

Structure (SMILES): CC(=O)N[C@H]1[C@H]([C@H](O)[C@H](O)CO)OC(C(=O)O)=C[C@@H]1N(CCCCN)C(=N)N
- IC50 (Neuraminidase [1]): > 200 µM

Structure (SMILES): CC(=O)N[C@H]1[C@H]([C@H](O)[C@H](O)CO)OC(C(=O)O)=C[C@@H]1N(CCCC(=O)O)C(=N)N
- IC50 (Neuraminidase [1]): 7.12 µM
- EC50 [2]: 52 µM

Structure (SMILES): CC(=O)N[C@H]1[C@H]([C@H](O)[C@H](O)CO)OC(C(=O)O)=C[C@@H]1N=C(N)NCCCN
- IC50 (Neuraminidase [1]): > 200 µM

Structure (SMILES): CC(=O)N[C@H]1[C@H]([C@H](O)[C@H](O)CO)OC(C(=O)O)=C[C@@H]1N(CCCC(=O)N1CCN(C)CC1)C(=N)N
- IC50 (Neuraminidase [1]): 6.5 µM
- EC50 [2]: 10.7 µM

Structure (SMILES): CC(=O)N[C@H]1[C@H]([C@H](O)[C@H](O)CO)OC(C(=O)O)=C[C@@H]1N(CCCC(=O)N1CCOCC1)C(=N)N
- IC50 (Neuraminidase [1]): 33.3 µM
- EC50 [2]: 37.6 µM

Structure (SMILES): CC(=O)N[C@H]1[C@H]([C@H](O)[C@H](O)CO)OC(C(=O)O)=C[C@@H]1N(CCCC(=O)N1CCCCC1)C(=N)N
- IC50 (Neuraminidase [1]): 23.1 µM
- EC50 [2]: 45 µM

Structure (SMILES): CC(=O)N[C@H]1[C@H]([C@H](O)[C@H](O)CO)OC(C(=O)O)=C[C@@H]1N(CCCC(=O)N1CCNCC1)C(=N)N
- IC50 (Neuraminidase [1]): 2.15 µM
- EC50 [2]: 0.77 µM

Structure (SMILES): CC(=O)N[C@H]1[C@H]([C@H](O)[C@H](O)CO)OC(C(=O)O)=C[C@@H]1NCCCCC(=O)O
- IC50 (Neuraminidase [1]): 80 µM

Structure (SMILES): CC(=O)N[C@H]1[C@H]([C@H](O)[C@H](O)CO)OC(C(=O)O)=C[C@@H]1N
- EC50 (Influenza A virus): 1.5 µM
- Ki (Neuraminidase [3]): 0.04 µM

Structure (SMILES): CC(=O)N[C@H]1[C@H]([C@H](O)[C@H](O)CO)OC(C(=O)O)=C[C@@H]1O [NEU5AC2EN]
- IC50 (Neuraminidase [4]): 190 µM

Structure (SMILES): CC(=O)N[C@H]1[C@H]([C@H](O)[C@H](O)CO)OC(C(=O)O)=C[C@@H]1NC(=N)N [ZANAMIVIR]
- EC50 [2]: 0.013 µM
